Reference: patent publication US20250177386A1, “METHOD OF TREATMENT OF DEPRESSED PATIENTS WITH POOR COGNITION AND SELECTION OF OTHER PATIENTS BENEFITING FROM A BENZYLPIPERAZINE-AMINOPYRIDINE AGENT” (Alto Neuroscience, Inc., priority 2021, published 2025)

Experiments:
[1] = system: patients having major depressive disorder; settings: cited from earlier work
[2] = system: patients having major depressive disorder; assay: Phase 2 clinical trial with NSI-189 (220 patients, SPCD design), retrospective analysis by baseline cognition; type: in vivo, human; settings: for number needed to treat to achieve one more remission / odds ratio for drug response: 80 mg vs placebo; for odds ratio for drug response: remission at 6 weeks
Procedure: A subsequent Phase 2 study was then performed on 220 patients with major depression (11). In that study, patients were randomized to receive a total daily dose of 40 mg or 80 mg of NSI-189 or placebo in stage 1 of the clinical trial design. […] Treatment in either stage was given for six weeks. This design is termed a Sequential Parallel Clinical Design (SPCD), and is analyzed statistically by combining results in a pre-defined manner for outcomes differences between relevant groups (e.g., drug vs. placebo) in each of the stages individually. There are two depression outcome measures accepted by the United States Food and Drug Administration (FDA) for the evaluation of adults. See the June 2018 FDA draft guidance entitled “Major Depressive Disorder: Developing Drugs for Treatment.” These are the Montgomery-Asberg Depression Rating Scale (MADRS), which was the primary outcome in this study, as well as the Hamilton Depression Rating Scale (HDRS) which was a key secondary outcome measure. […] It was reported that any benefits of NSI-189 on depression and cognition are independent effects (27).
A retrospective analysis of the 220-patient phase 2 study of NSI-189 discussed above was performed. In the study, patients having major depressive disorder were randomized to receive a total daily dose of 40 mg or 80 mg of NSI-189 or placebo in stage 1 (first 6 weeks) of the clinical trial design. […] The remaining of patients continued on their treatment for stage 2 of the trial. Treatment in either stage was given for six weeks. Patients were eligible for study participation if they were between the ages of 18-60 years, with current major depressive disorder of at least 8 weeks duration according to the DSM-5, as diagnosed by the Structured Clinical Interview for the DSM-5 clinical trial version (SCID-5-CT) during the screen and remote assessment visits, and if they were scored at least 20 at screen, remote assessment, and baseline visits on the Montgomery-Asberg Depression Rating Scale (MADRS). The phase 2 study collected cognitive task performance data prior to treatment, and then again after both stage 1 and stage 2 of the treatment protocol. The purpose of doing so was to determine whether treatment with this compound results in improvement in cognitive functioning, as measured by a variety of behavioral measures.
Prior to the inventor's retrospective analysis, there was no consideration as to using behavioral measures to predict treatment outcome nor was there any analysis conducted to this effect. There was no consideration of using cognitive performance as a predictor but only as an outcome measure. […] The tasks in this battery included a simple reaction time (RT) task, a choice RT task, a one-back working memory task, and a visual learning task. Moreover, given the conversion to z-score, a composite cognitive task performance score could be computed by averaging the z-scores for each of the four tasks in the battery. Analyses focused on the MADRS primary outcome of the study, with supporting evidence subsequently produced by examining the HDRS key secondary outcome, as well as the CGI. Statistical analyses focused first on the complete trial (incorporating both stage 1 and stage 2 outcomes), using the SPCD analytic approach reported in the original study and thus aligned could be compared with the original statistical analysis plan. We used linear mixed models to predict change from baseline (at 2, 4, and 6 weeks) in clinical scores and included covariates for time, time x group, time x baseline MADRS and baseline MADRS. These covariates likewise were used in the original study, and thus results here can be compared with the all-comer results reported previously. Statistical significance was thus assessed on the primary outcome (MADRS change from baseline at 6 weeks across the SPCD design) and similar secondary outcomes (HDRS and CGI change from baseline at 6 weeks). […]

[3] = system: patients with major depression; settings: total daily doses of 40 mg, 80 mg or 120 mg; 18 patients on active dose (ref. 10); cited from earlier work

For `CC(C)CCNc1ncccc1C(=O)N1CCN(Cc2ccccc2)CC1` [NSI-189, (4-benzylpiperazin-1-yl)-[2-(3-methylbutylamino)pyridin-3-yl]methanone], the “effects on several secondary measures compared to placebo” value ([1]; 40 mg dose, all-comers, not corrected for multiple comparisons) is given as “nominally significant effects”, the “efficacy on any study measure” value ([1]; 80 mg daily dose, entire study population (ref. 11)) is given as “did not demonstrate efficacy” and the “antidepressant efficacy on MADRS primary outcome and HDRS key secondary measure” value ([1]; original all-comer analysis, 40 mg or 80 mg/day, full SPCD analysis or each stage alone (ref. 11)) is given as “failed to demonstrate any evidence of antidepressant efficacy”. The “change in MADRS scores, either drug arm versus placebo” value ([2]; 40 mg or 80 mg/day, good cognition group (composite score above patient mean), p=0.25) was “no significant differences”, the “change in MADRS scores, 40 mg group versus placebo” value ([2]; 40 mg/day, poor cognition group (cognitive composite score), p=0.39) was “not significant” and the “durability of MADRS benefit, poor cognition compared to good cognition patients” value ([2]; 80 mg arm from stage 1, composite score, 12 weeks of treatment) was “stable and consistent throughout all 12 weeks of treatment”. For the same compound, the “number needed to treat to achieve one more remission” value ([2]; all-comer sample, 6 weeks, stage 1) was 19.6, the “odds ratio for drug response” value ([2]; all-comer sample, stage 1) was 1.3 and the “number needed to treat to achieve one more remission” value ([2]; poor cognition subpopulation, 6 weeks, stage 1) was 3.2. For the same compound, the “odds ratio for drug response” value ([2]; poor cognition subpopulation, stage 1) was 4.7, the “change in MADRS scores, 80 mg versus placebo” value (from here on “change … 80 mg versus placebo”) ([2]; 80 mg/day, choice RT task, lenient cutoff z=+0.5, p=0.12) was “did not yield a significant effect” and the “Cohen's d effect size per MADRS item, 80 mg versus placebo” value ([2]; 80 mg/day, cognitively impaired patients, six weeks, both stages, items 1, 7, 8, 9) was “notable effects”. The “remission rate (score of 10 or less on the MADRS)” value ([2]; 80 mg/day, good cognition patients, 6 weeks, stage 1, chi-square p=0.014 vs poor cognition) was 12%, the “MADRS depression score improvement, 80 mg over placebo” value ([2]; 80 mg/day, late-life depression (LLD) group, 50 years or older) was “greater with 80 mg over placebo” and the “MADRS depression score improvement, 80 mg versus placebo” value ([2]; 80 mg/day, non-LLD group, younger than 50) was “indistinguishable between the two arms”. For the same compound, the “symptom change on the HDRS, 80 mg relative to placebo” value ([2]; 80 mg/day, poor cognition based on choice RT task, p=0.008) was “robust and significant effect”, the “change … 80 mg versus placebo” value ([2]; 80 mg/day, poor cognition defined by choice RT task, SPCD p=0.005) was “robust and significant improvement over placebo” and the “Clinical Global Impression (CGI) severity, 80 mg over placebo” value ([2]; 80 mg/day, poor cognition defined by choice RT, p=0.0002) was “robust and significant advantage”. The “change … 80 mg versus placebo” value ([2]; 80 mg/day, poor cognition defined by one-back working memory, SPCD p=0.08) was “trend-level significance”, the “change … 80 mg versus placebo” value ([2]; 80 mg/day, poor cognition defined by simple RT task, SPCD p=0.09) was “trend-level significance” and the “change in MADRS scores, 80 mg arm versus placebo” value ([2]; 80 mg/day, poor cognition group (cognitive composite score below patient mean), SPCD analysis p=0.014, 6 weeks) was “robust and statistically significant effect”. For the same compound, the “change … 80 mg versus placebo” value ([2]; 80 mg/day, poor cognition on choice RT task, cutoff z=0, p=0.007) was “significant superiority over placebo”, the “change … 80 mg versus placebo” value ([2]; 80 mg/day, poor cognition on choice RT task, cutoff z=-0.5, p=0.009) was “significant superiority over placebo” and the “remission rate (score of 10 or less on the MADRS)” value ([2]; 80 mg/day, poor cognition patients (composite score), 6 weeks, stage 1, chi-square p=0.017 vs placebo) was 47%. For the same compound, the “Clinical Global Impression (CGI) severity, 80 mg versus placebo” value ([2]; 80 mg/day, poor cognition patients (composite score), p=0.002) was “significantly more effective than placebo”, the “symptom change on the HDRS, 80 mg over placebo” value ([2]; 80 mg/day, poor cognition patients (composite score), p=0.038) was “significantly greater efficacy” and the “benefit in terms of remission rate” value ([2]; good cognition group, 6 weeks, stage 1) was “No benefit”. The “MADRS depression score, difference between treatment arms” value ([2]; patients with poor self-reported cognition (CPFQ score >25)) was “no difference is seen between treatment arms”, the “Cohen's d effect sizes (MADRS, HDRS, CGI), 80 mg versus placebo” value ([2]; week 6, stage 1 and stage 2, poor cognition subpopulation relative to all-comer sample) was “effect sizes increase substantially” and the potential antidepressant efficacy [3] was “promising evidence”.
